In data set [1] the target is ecFabI (Escherichia coli (strain K12), UniProt P0AEK4). The data set is described as follows: ecFabI inhibition kinetics. Type of data set: biochemical.
In data set [2] the test system is E. coli MG1655 ΔacrAB. The data set can be described thus: microbe, parasite or virus in culture. Type of data set: cell-based, Escherichia coli. The conditions noted are these: Escherichia coli, MG1655.
In data set [3] the test system is MRSA strain BAA1762. The data set can be described thus: Neutropenic mouse thigh infection model. Type of data set: in vivo, Swiss Webster mice. The conditions noted are these: 100 mg/kg dose, MRSA BAA1762, neutropenic mouse.
A short description of data set [4]: in vivo. The conditions noted are these: female, ICR, mouse, ip, 200 mg/kg.
Data set [5] concerns S. aureus RN4220. The data set is described as follows: MIC microbroth dilution, S. aureus RN4220. Type of data set: cell-based, Staphylococcus aureus. The conditions noted are these: for MIC: Staphylococcus aureus. Background: In broth dilution the organism is exposed to a series of concentrations in liquid medium.
In data set [6] the target is T1, saFabI (Staphylococcus aureus (strain MRSA252), UniProt Q6GI75). The data set can be described thus: Jump dilution assay with saFabI. The class given is biochemical. The conditions noted are these: preincubation with NADP+ and saFabI, jump dilution; read-out: residence time tR.
Data set [7] addresses M. tuberculosis enoyl-ACP reductase InhA (Mycobacterium tuberculosis (strain ATCC 25618 / H37Rv), UniProt P9WGR1). The data set is described as follows: InhA inhibition kinetics. Type of data set: biochemical.
The subject of data set [8] is M. tuberculosis H37Rv. The data set can be described thus: MIC microbroth dilution, M. tuberculosis H37Rv. The conditions noted are these: Mycobacterium tuberculosis, H37RV, read-out: Mycobacterium tuberculosis MIC (μg/mL) H37Rv. Type of data set: cell-based.
For data set [9], the target named is bpFabV (Burkholderia pseudomallei, UniProt Q63TE9). The class given is biochemical. The conditions noted are these: read-out: Burkholderia pseudomallei IC50 (μM), bpFabV.
In data set [10] the target is YpFabV (Yersinia pestis, UniProt Q8Z9U1). The data set is described as follows: biochemical.
Data set [11] concerns the target T1, saFabI. The data set can be described thus: saFabI inhibition kinetics. The class given is biochemical.
Data set [12] relates to F. tularensis LVS. The data set can be described thus: microbe, parasite or virus in culture. Type of data set: cell-based. The following applies: Francisella tularensis, read-out: Francisella tularensis MIC (μg/mL) LVS, 2-pyridones table.
For data set [13], the target named is Francisella tularensis FabI (Francisella tularensis subsp. tularensis (strain SCHU S4 / Schu 4), UniProt Q5NGQ3). The data set can be described thus: biochemical.
For data set [14], the target named is bpFabI (Burkholderia pseudomallei, UniProt A0A0H3HP34). The data set is described as follows: biochemical.
For data set [15], the system named is Bt38. The data set can be described thus: microbe, parasite or virus in culture. Type of data set: cell-based. The conditions noted are these: Burkholderia pseudomallei, read-out: Burkholderia pseudomallei MIC (μg/mL) Bt38.
[16] abbreviates: [S]/KS = 0.19, binds E-NAD+ binary complex, single point progress curve analysis, read-out: Ki^app.
Where [17] appears, read: binds E-NAD+ binary complex, single point progress curve analysis, read-out: Ki.
Setting [18] is: RN4220, S. aureus RN4220, read-out: MIC.
The mark [19] stands for this setting: Ki^app (nM), saFabI, [S]/KS = 2.
[20] abbreviates: Staphylococcus aureus Ki (in brackets under IC50), 2-pyridones table.
The mark [21] stands for this setting: RN4220, 2-pyridones table, read-out: Staphylococcus aureus MIC (μg/mL) RN4220.

Values after ≈ are worked out from the molar mass of the structure shown. Values joined by “and” are separate entries in the source; they are usually repeats but may differ in a detail not shown here. Equal entries are not always repeated. Where two headings read alike, the source gives them in different places. Bounds are passed on as bounds.

Consider `CCCCCCc1ccc(Oc2ccccc2)c(O)c1` [PT04, 5-hexyl-2-phenoxyphenol, reference compound], for which the Ki in [1] (setting [16]) turned out to be 32.2 nM. Also, the Ki in [1] (setting [17]) amounted to 0.2 nM. Further, the MIC in data set [2] came to 14.8 µM (≈ 4 µg/mL). The “decrease of bacterial burden in the infected thigh” value in [3] worked out at 0.9 log cfu/g tissue. For the same molecule, in data set [4], the AUC(0-t) (commonly the area under the concentration-time curve up to a stated or last time point) was found to be 11800 ng·h/mL; the Cmax (in general, the highest concentration seen after dosing) turned out to be 5100 ng/mL; the Tmax (in general, the time from dosing to the highest level) was 1 h; the half-life (as a rule, the time in which the quantity being followed falls by half) was 4.5 h.
Consider `Oc1ccccc1Oc1ccccc1` [PT51, reference compound], for which, in data set [5] (setting [18]), the MIC is 687 µM.
On to `Oc1cc(Cl)ccc1Oc1ccccc1` [PT52], for which the Ki in [1] (setting [16]) is 26.9 nM; in [1] (setting [17]), 0.1 nM. This molecule also had an MIC in [2] of 0.1 µM (≈ 0.0221 µg/mL). Moreover, the residence time in data set [6] was found to be 30 min.
Take `Cc1ccc(Oc2ccccc2)c(O)c1` [PT53, reference compound]: the MIC in data set [5] (setting [18]) worked out at 20 µM.
As to `Oc1cc(F)ccc1Oc1ccccc1` [PT55], the figures for the Ki in [1] (setting [16]) and in data set [1] (setting [17]) were 92.6 nM and 1.1 nM, respectively. Also, in data set [2], the MIC was 1.2 µM (≈ 0.245 µg/mL).
For `Cn1cc(Oc2ccc([N+](=O)[O-])cc2)c(=O)cc1CCl` [PT151], in [7] (at 1 μM, [E] = 50 nM), the “Mycobacterium tuberculosis enzyme, inhibition at 1 μM” value was “No”.
In the case of `Cc1cc([N+](=O)[O-])ccc1Oc1cn(C)c(CCl)cc1=O` [PT152], in data set [7], 2250 nM corresponded to half-maximal inhibition (IC50). Further, in [8] (4-pyridones table), the MIC came out at 12.5 µg/mL (≈ 40.5 µM).
Take `CCCCCCc1cc(=O)c(Oc2ccc(N)cc2)cn1C` [PT157]: the IC50 (commonly the concentration that gives 50% inhibition) in data set [7] was 424 nM; in data set [9], 1 µM and 0.87 µM; in data set [10], 130 nM. Also, the MIC in data set [8] (4-pyridones table) turned out to be 50 µg/mL (≈ 166 µM).
In the case of `CCCCCCc1cc(=O)c(Oc2ccccc2C#N)cn1C` [PT159], the Ki in data set [11] (Ki (nM), saFabI) was determined as 11 ± 0.9 nM; in data set [11] (setting [19]), 41 ± 3.4 nM; in data set [11] (Staphylococcus aureus Ki (nM), 4-pyridones table), 11 nM. Moreover, the IC50 in data set [7] was found to be 629 nM. For the same molecule, the MIC in data set [5] (RN4220, 4-pyridones table, read-out: Staphylococcus aureus MIC (μg/mL) RN4220) was determined as 4 µg/mL; in data set [5] (setting [18]), 12.9 µM; in data set [8] (4-pyridones table), 50 µg/mL (≈ 161 µM).
For the molecule `CCCCCCc1cc(=O)c(Oc2cccnc2C#N)cn1C` [PT167], in [7], the IC50 was 979 ± 152 nM. Further, in [8] (4-pyridones table), the MIC came out at 100 µg/mL (≈ 321 µM).
`CCCCCCc1cc(=O)c(Oc2ccccn2)cn1C` [PT168] had an IC50 in data set [7] of 1780 ± 315 nM. Moreover, the MIC in data set [8] (4-pyridones table) was found to be 50 µg/mL (≈ 175 µM).
For `CCCCCCc1cc(=O)c(Oc2cccnc2N)cn1C` [PT169], in that order: 379 ± 41 nM and 12.5 µg/mL (≈ 41.5 µM).
Turning to `Cc1ccn(Cc2ccccc2Cl)c(=O)c1` [PT170], the IC50 in data set [11] is greater than 1000 nM; in data set [7], greater than 1700 nM; in data set [13], 202 ± 17 nM; in [14], greater than 1000 nM. The Ki in [11] (Ki (nM), saFabI) is 229 ± 5.2 nM; in data set [11] (setting [19]), 849 ± 19.3 nM; in data set [11] (setting [20]), 229 ± 5.2 nM. The MIC is greater than 500 µg/mL in data set [5] (setting [21]), greater than 500 µM in data set [5] (setting [18]), 50 µg/mL (≈ 214 µM) in [12] and greater than 50 µg/mL in data set [8] (2-pyridones table).
`CCCCCCc1ccn(Cc2ccccc2C)c(=O)c1` [PT171]: the IC50 in data set [11] is 150 ± 22 nM; in data set [7], 130 ± 21 nM; in data set [13] it was 83 ± 32 nM; in data set [14] it was roughly 400 nM. For the same molecule, the Ki in [11] (Ki (nM), saFabI) was found to be 11.9 ± 1.8 nM; in [11] (setting [19]), 44.3 ± 6.6 nM; in [11] (setting [20]), 11.9 ± 1.8 nM; in [1] (Ki^app (nM), [S]/KS = 0.19), 116 ± 4.6 nM. Also, the MIC in data set [5] (setting [21]) came out at 5 µg/mL; in [12] it was 3.65 µg/mL (≈ 12.9 µM); in data set [8] (2-pyridones table) it was 25 µg/mL (≈ 88.2 µM); in [15], 154 µg/mL (≈ 542 µM).
As to `CCCCCCc1ccn(Cc2ccccc2Cl)c(=O)c1` [PT172], the IC50 in data set [11] is 379 ± 88 nM; in data set [7] it was 240 ± 44 nM; in data set [13], 61 ± 13 nM; in [14], 260 ± 9.3 nM. In addition, the Ki in [11] (Ki (nM), saFabI) is 11 ± 0.4 nM; in data set [11] (setting [19]) it was 40.7 ± 1.3 nM; in [11] (setting [20]), 11 ± 0.4 nM. In addition, the “Staphylococcus aureus MIC (μg/mL) RN4220” value in data set [5] (2-pyridones table) came out at 8 µg/mL. Also, the MIC stood at 5 µg/mL in data set [5] (setting [21]); 26.3 µM in data set [5] (setting [18]); 4.04 µg/mL (≈ 13.3 µM) in data set [12]; 25 µg/mL (≈ 82.3 µM) in data set [8] (2-pyridones table); 250 µg/mL (≈ 823 µM) in data set [15].

(Values after patent US10071965B2, “Pyridone FabI inhibitors and uses thereof” (priority 2015, dated 2018).)
